target: MAPK14 (UniProt Q16539); assay: Assessment of MAPK14 Kinase Activity Using Spectrophotometric Assay; settings: not given
Sequence (Q16539 whole entry, looked up): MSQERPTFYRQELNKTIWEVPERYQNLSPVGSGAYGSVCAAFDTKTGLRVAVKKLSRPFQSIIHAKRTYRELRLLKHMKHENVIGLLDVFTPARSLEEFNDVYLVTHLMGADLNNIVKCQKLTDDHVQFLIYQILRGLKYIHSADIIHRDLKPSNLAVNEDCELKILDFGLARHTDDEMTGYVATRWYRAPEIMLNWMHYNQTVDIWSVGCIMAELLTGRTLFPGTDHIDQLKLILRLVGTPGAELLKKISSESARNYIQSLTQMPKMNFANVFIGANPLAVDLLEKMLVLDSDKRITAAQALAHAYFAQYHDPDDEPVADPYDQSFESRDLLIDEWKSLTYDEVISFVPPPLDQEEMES

IC50	Structure (SMILES)
37 nM	O=C(Nc1cccc(Cl)c1Cl)Nc1cc(-c2ccccc2F)nn1-c1ccc(CC(=O)N2CC[C@H](CO)C2)cc1
13 nM	CN1C(=O)C(c2cccc(NC(=O)Nc3cc(C(C)(C)C)nn3-c3ccc4c(c3)CCN4)c2)C=C2C=NC=NC21 (centres undefined)
120 nM	CC(C)(C)c1cc(NC(=O)Nc2cccc3c2C=NC3=O)n(-c2cccc(CC(N)=O)c2)n1

More lines, now with the values behind:

Structure (SMILES)	IC50
O=C(O)CCc1ccc(-n2nc(-c3cccs3)cc2NC(=O)Nc2cccc(Cl)c2Cl)cc1	30 nM
CN1C(=O)C(c2cccc(NC(=O)Nc3cc(C(C)(C)C)nn3-c3ccc4c(c3)CCN4S(C)(=O)=O)c2)C=C2C=NC=NC21 (centres undefined)	28 nM
COc1cccc(-n2nc(C(C)(C)C)cc2NC(=O)Nc2cccc(Br)c2)c1	354 nM
CC(O)c1cc(-n2nc(C(C)(C)C)cc2NC(=O)Nc2cccc(Cl)c2Cl)cc2ccccc12 (centres undefined)	150 nM
CC(C)(C)c1cc(NC(=O)Nc2cccc(Cl)c2)n(-c2cccc(CN)c2)n1	110 nM
CC(C)(C)c1cc(NC(=O)Nc2cccc(Cl)c2Cl)n(-c2cccc(CC(=O)O)c2)n1	22 nM
CC(C)(C)c1cc(NC(=O)Nc2cccc(Cl)c2Cl)n(-c2ccc(CCC(=O)O)cc2)n1	14 nM

same assay, conditions: concentration not given here

inhibition	Structure (SMILES)
90%	Cc1ccc(NC(=O)Nc2cc(C(C)(C)C)nn2-c2cccc(CC(N)=O)c2)cc1Nc1ncccn1
57%	CC(C)(C)c1cc(NC(=O)Nc2cccc(-c3ncccn3)c2)n(-c2cccc(CC(N)=O)c2)n1
82%	NC(=O)Cc1cccc(-n2nc(C3CCCC3)cc2NC(=O)Nc2ccc(-c3cccc4c3C=NC4=O)cc2)c1
58%	CC(C)(C)c1cc(NC(=O)N2=CC=C3C=CC=CC3=C2)n(n1)c4cccc(CCC(=O)O)c4

Reference: the Kinase Knowledgebase extract (Sharma et al. 2016)
